In US9700550B1, “Decreasing expression level of apoptosis-related genes by treating a human subject with a nitroxide” (priority 2016, dated 2017):

Experiments:
Format in all cases: in vivo
[1] = system: Tradd; assay: Gene expression in cardiac tissue of Tempol-fed mice, chip-based microarray
Experimental: (§1) To assess the effects of Tempol on gene expression, Tempol was administered to experimental mice at a dose of 5 mg/g of food from 14 months to 31 months after birth. Mice receiving the same food without the addition of Tempol were used as a negative control. At the age of 31 months, the experimental animals were sacrificed and the hearts were surgically removed. The expression of a broad spectrum of genes in the cardiac tissue was assessed using chip-based microarray technology. Such chips are well known in the art and are widely used to assess gene expression.

[2] = system: Casp3; assay: as above
Experimental: as §1

[3] = system: Casp2; assay: as above
Experimental: as §1

[4] = system: Pdcd5; assay: as above
Experimental: as §1

[5] = system: Casp12; assay: as above
Experimental: as §1

[6] = system: Trp53inp1 (mouse gene of Tp53inp1); assay: as above
Experimental: as §1

[7] = system: Bak1; assay: as above
Experimental: as §1

[8] = system: Bak1, Pdcd5, Casp2, Tradd, Trp53inp1 (mouse gene of Tp53inp1), Casp3, or Casp12; assay: Serum level of apoptosis pathway genes in a human subject after Tempol treatment; details: 1500 mg Tempol per day for 180 days
Experimental: (§2) A 70-kilogram human subject is identified for increased expression level of Bak1, Pdcd5, Casp2, Tradd, Trp53inp1 (mouse gene of Tp53inp1), Casp3, or Casp12. The human subject is administered a dose of 1500 mg of Tempol per day for 180 days. This may be administered in a single dose, or may be administered as a number of smaller doses over a 24-hour period: for example, three 500-mg doses at eight-hour intervals. Following treatment, the serum level of Bak1, Pdcd5, Casp2, Tradd, Trp53inp1 (mouse gene of Tp53inp1), Casp3, or Casp12, is reduced.
as §2, with “decreased immune response to a bacterial infection.” for “increased expression level of Bak1, Pdcd5, Casp2, Tradd, Trp53inp1 (mouse gene of Tp53inp1), Casp3, or Casp12.”
as §2, with “identified as at risk” for “identified”, “a psychiatric condition.” for “increased expression level of Bak1, Pdcd5, Casp2, Tradd, Trp53inp1 (mouse gene of Tp53inp1), Casp3, or Casp12.”
as §2, with “identified as risk” for “identified”, “stress-induced apoptosis.” for “increased expression level of Bak1, Pdcd5, Casp2, Tradd, Trp53inp1 (mouse gene of Tp53inp1), Casp3, or Casp12.”
(§3) A 70-kilogram human subject is identified as at risk for a disease associated with an increased level of apoptosis. The human subject is administered a dose of 1500 mg of Tempol per day for 180 days. This may be administered in a single dose, or may be administered as a number of smaller doses over a 24-hour period: for example, three 500-mg doses at eight-hour intervals. Following treatment, the serum level of Bak1, Pdcd5, Casp2, Tradd, Trp53inp1 (mouse gene of Tp53inp1), Casp3, or Casp12, is reduced.
as §2, with “identified as at risk of a disease having an” for “identified for”
as §3, with “of Parkinson's” for “for a”, “[…].” for “associated with an increased level of apoptosis.”

[9] = Tempol 5 mg/g of food vs control mice
[10] = Tempol-treated vs control mice, P-value 0.01
[11] = Tempol-treated vs control mice, P-value 0.00
[12] = Tempol-treated vs control mice, P-value 0.03

CC1(C)CC(O)CC(C)(C)N1[O] [Tempol, 4-hydroxy-2,2,6,6-tetramethylpiperidine-1-oxyl]
Tradd expression change, in words [1, 9]: statistically significant decrease in expression | Tradd fold change [1, 10]: −1.23 | Tradd expression, Tempol-treated mice ([1]; age 31 months, Tempol 5 mg/g of food from 14 to 31 months, control mice 288): 233 | Casp3 expression change, in words [2, 9]: statistically significant decrease in expression | Casp3 fold change [2, 11]: −1.47 | Casp3 expression, Tempol-treated mice ([2]; age 31 months, Tempol 5 mg/g of food from 14 to 31 months, control mice 604): 414 | Casp2 expression change, in words [3, 9]: statistically significant decrease in expression | Casp2 fold change [3, 12]: −1.20 | Casp2 expression, Tempol-treated mice ([3]; age 31 months, Tempol 5 mg/g of food from 14 to 31 months, control mice 316): 261 | Pdcd5 expression change, in words [4, 9]: statistically significant decrease in expression | Pdcd5 fold change [4, 12]: −1.15 | Pdcd5 expression, Tempol-treated mice ([4]; age 31 months, Tempol 5 mg/g of food from 14 to 31 months, control mice 2863): 2503 | Casp12 expression change, in words [5, 9]: statistically significant decrease in expression | Casp12 fold change ([5]; Tempol-treated vs control mice, P-value 0.02): −1.61 | Casp12 expression, Tempol-treated mice ([5]; age 31 months, Tempol 5 mg/g of food from 14 to 31 months, control mice 701): 436 | Trp53inp1 expression change, in words [6, 9]: statistically significant decrease in expression | Trp53inp1 fold change [6, 11]: −1.33 | Trp53inp1 expression, Tempol-treated mice ([6]; age 31 months, Tempol 5 mg/g of food from 14 to 31 months, control mice 1107): 830 | Bak1 expression change, in words [7, 9]: statistically significant decrease in expression | Bak1 fold change [7, 10]: −1.15 | Bak1 expression, Tempol-treated mice ([7]; age 31 months, Tempol 5 mg/g of food from 14 to 31 months, control mice 260): 226 | serum level of Bak1, Pdcd5, Casp2, Tradd, Trp53inp1, Casp3, or Casp12 following treatment ([8]; Example 2: 70-kilogram human subject with increased expression level of the gene): reduced | serum level of Bak1, Pdcd5, Casp2, Tradd, Trp53inp1, Casp3, or Casp12 following treatment ([8]; Example 3: 70-kilogram human subject with decreased immune response to a bacterial infection): reduced | serum level of Bak1, Pdcd5, Casp2, Tradd, Trp53inp1, Casp3, or Casp12 following treatment ([8]; Example 4: 70-kilogram human subject at risk for a psychiatric condition): reduced | serum level of Bak1, Pdcd5, Casp2, Tradd, Trp53inp1, Casp3, or Casp12 following treatment ([8]; Example 5: 70-kilogram human subject at risk for stress-induced apoptosis): reduced | serum level of Bak1, Pdcd5, Casp2, Tradd, Trp53inp1, Casp3, or Casp12 following treatment ([8]; Example 6: 70-kilogram human subject at risk for a disease associated with an increased level of apoptosis): reduced | serum level of Bak1, Pdcd5, Casp2, Tradd, Trp53inp1, Casp3, or Casp12 following treatment ([8]; Example 7: 70-kilogram human subject at risk of a disease having an increased expression level of the gene): reduced | serum level of Bak1, Pdcd5, Casp2, Tradd, Trp53inp1, Casp3, or Casp12 following treatment ([8]; Example 8: 70-kilogram human subject at risk of Parkinson's disease): reduced
